Test results: patent US10914726B2, “Method for evaluating protrusion-forming ability of cell spheroids” (priority 2017, dated 2021)

How the values were obtained:
[1] = tested on: MDA-MB231 cells; experiment: Live/dead determination of gel-embedded cell spheroids treated with anticancer agents; type: cell-based, human; conditions: 48 hours, Batimastat 4 μM, Staurosporine 1 μM; for number of dead cells (share of cells) / Number of Dead cells / Number of Living cells: MDA-MB231 spheroid in Matrigel; for Number of Dead cells: green fluorescence cell nuclei counted; for Number of Living cells: red fluorescence cell nuclei counted
Procedure: (§1) The protrusion-forming ability of the cell spheroids of the cancer cells treated with various anticancer agents was examined. As the cancer cells, MDA-MB231 cells of a cultured cell strain established from a human breast cancer cells were used. MDA-MB 231 cells were cultured under a condition with a temperature of 37° C. and a CO2 concentration of 5 vol % in a culture medium of DMEM containing 10% FBS.
(§2) Two thousand MDA-MB 231 cells and 5 μL of 10×Spheroid Formation ECM (manufactured by Trevigen, Inc.) were mixed in a culture medium to prepare a cancer cell solution of which the final amount was adjusted to 50 μL using DMEM (phenol red free), and then 50 μL of the cancer cell solution was injected into one well of the U bottom plate for forming a cell spheroid “Prime Surface (registered trade mark) U plate” (manufactured by Sumitomo Bakelite Co., LTD.), followed by culturing the cells for 72 hours to form cell spheroids.
The culture medium was removed from the U bottom plate as much as possible by suction while paying attention not to suck the spheroids, followed by carefully adding 100 μL of Matrigel (manufactured by Corning Incorporated) to the well. The U bottom plate was allowed to stand in an incubator at 37° C. for 1 hour, and the gel was cured to construct a cell spheroid embedded in a gel.
100 μL of culture mediums containing L-Sulforaphane (final concentration: 10 μM), Batimastat (final concentration: 4 μM), Mitomycin C (final concentration: 10 μM), Paclitaxel (final concentration: 4 μM), or Staurosporine (final concentration: 1 μM) was added on the gel in which the cell spheroids were embedded, and then 0.1 μL ( 1/1000 of the culture medium amount) of “Nuclear ID green/red cell viability reagent” (manufactured by Enzo Life Science, Inc.) was further added thereto, followed by culturing them for 48 hours to infiltrate. By adding the live/dead determination reagent, the living cells were stained with red fluorescence and the dead cells were stained with green fluorescence. As a control, a cultivation in which a culture medium containing only the live/dead determination reagent was used was carried out in the same manner as the above-described cultivation except that the anticancer agents were not added.
The fluorescently labeled samples prepared in the above-described sections <Anticancer Agent Treatment and Treatment for Live/dead Determination> and <Anticancer Agent Treatment and Actin Staining> were imaged with a confocal laser microscope “FV 1200” (manufactured by Olympus Corporation). A 20-fold objective lens ([…]×20) was used to image, and the Z-slice interval was 2 μm. The total number of Z-slices was 60 to 100.
The series of plane tomographic image groups obtained by imaging the respective fluorescently labeled samples were superimposed to construct a stereoscopic image. The obtained stereoscopic image was binarized to obtain a binarized image.
For the binarized images obtained from the fluorescently labeled samples treated with the live/dead determination reagent, the number of cell nuclei of red fluorescence and green fluorescent were measured.

[2] = tested on: MDA-MB231 cells; experiment: Evaluation of protrusion-forming ability of cell spheroids from stereoscopic image (central sphere volume ratio); type: cell-based, human; conditions: 48 hours, L-Sulforaphane 10 μM, Batimastat 4 μM, Mitomycin C 10 μM, Paclitaxel 4 μM, Staurosporine 1 μM
Procedure: as §1, §2
The culture medium was removed from the U bottom plate as much as possible by suction while paying attention not to suck the spheroids, followed by carefully adding 100 μL of Matrigel (manufactured by Corning Incorporated) to the well. The U bottom plate was allowed to stand in an incubator at 37° C. for 1 hour, and the gel was cured to construct a cell spheroid embedded in a gel. […]

Compound	number of dead cells (share of cells) [1]	Number of Dead cells [1]	Number of Living cells [1]	central sphere volume ratio ([volume of non-protrusion part]/[total volume of cell spheroid]) from stereoscopic image ([2]; FIG. 3, actin staining)	protrusion formation / protrusion-forming ability ([2]; stereoscopic image)	induction of cell death ([1]; MDA-MB231 spheroid)
CNC(=O)[C@H](Cc1ccccc1)NC(=O)[C@H](CC(C)C)[C@H](CSc1cccs1)C(=O)NO [Batimastat]	about 24%	562	1738	–	–	–
CO[C@@]12[C@H](COC(N)=O)C3=C(C(=O)C(C)=C(N)C3=O)N1C[C@@H]1N[C@@H]12 [Mitomycin C]	–	–	–	higher central sphere volume ratio as compared with the remaining three anticancer agent-treated samples	suppressed more strongly	–
CN[C@@H]1C[C@H]2O[C@@](C)([C@@H]1OC)n1c3ccccc3c3c4c(c5c6ccccc6n2c5c31)C(=O)NC4 [Staurosporine]	about 70%	1631 ± 414	576 ± 67	–	–	cell death was induced
